Laboratory results reported in ChEMBL document CHEMBL3393044, “Amphirionin-2, a novel linear polyketide with potent cytotoxic activity from a marine dinoflagellate Amphidinium species” (Bioorg Med Chem Lett, 2015).
In brackets after ≈: the same amount, converted by molar mass. Activity calls are given as the source filed them. No cut-off for these calls is given here.

Key:
Homo sapiens = species on record: Homo sapiens; assay: Binding affinity to actin (unknown origin) by surface plasmon resonance analysis
P388 = assay: Antitumor activity against mouse P388 cells xenografted in CDF1 mouse at 0.5 mg/kg administered on day 1 and day 5 relative to control; assay type: functional
HeLa = assay: Cytotoxicity against human HeLa cells assessed as growth inhibition at 1 ug/ml after 72 hrs by WST-8 assay; assay type: functional; details: read-out: GI
[1] = Cytotoxicity against human Caco2 cells after 72 hrs by WST-8 assay; assay type: functional, cell-based; details: Caco-2, 72 h
A549 = assay: Cytotoxicity against human A549 cells after 72 hrs by WST-8 assay; assay type: functional, cell-based; details: A549, 72 h

Activity (Homo sapiens): Active
Structure (SMILES): C=CC[C@H](C)[C@@H](O)C[C@@H]1C[C@H]2O[C@H](/C=C(C)/C=C/C[C@H]3C[C@@H]4O[C@@H](/C=C/CCCCC)C[C@@H]4O3)C[C@H]2O1
T/C (P388): 120% | inhibition of growth at 1 µg/mL (HeLa): 20% | IC50 [1]: 0.1 µg/mL (≈ 0.194 µM) | IC50 (A549): 0.6 µg/mL (≈ 1.17 µM)
